Experiments:
Format in all cases: cell-based
[1] = tested on: Staphylococcus aureus S13E
Procedure: (§1) The antibacterial efficacy of the present compounds is illustrated by Table III. The minimal inhibitory concentrations (MICs) were determined using a standard broth micro-dilution assay.

[2] = tested on: Staphylococcus haemolyticus 415; assay: MIC, standard broth micro-dilution assay, SH 415
Procedure: as §1

[3] = tested on: Enterococcus faecalis 276; assay: MIC, standard broth micro-dilution assay, EF 276
Procedure: as §1

[4] = tested on: Resistant Enterococcus faecium and faecalis; assay: MIC, standard broth micro-dilution assay, Resistant; conditions: geometric mean of 4-6 isolates
Procedure: as §1

[5] = tested on: Staphylococcus aureus 489; assay: MIC, standard broth micro-dilution assay, SA 489
Procedure: as §1

[6] = tested on: Staphylococcus epidermidis 270; assay: MIC, standard broth micro-dilution assay, SE 270
Procedure: as §1

Escherichia coli EC14 = assay: MIC, standard broth micro-dilution assay, EC 14
Procedure: as §1

[7] = tested on: Sensitive Enterococcus faecium and faecalis; assay: MIC, standard broth micro-dilution assay, Sensitive; conditions: geometric mean of 4-6 isolates
Procedure: as §1

[8] = tested on: Staphylococcus aureus SA1199A; assay: MIC, standard broth micro-dilution assay, SA 1199A
Procedure: as §1

[9] = tested on: Haemophilus influenzae RD; assay: MIC, standard broth micro-dilution assay, HFRD
Procedure: as §1

[10] = tested on: Staphylococcus haemolyticus 105; assay: MIC, standard broth micro-dilution assay, SH 105
Procedure: as §1

[11] = tested on: Enterococcus faecalis 2041; assay: MIC, standard broth micro-dilution assay, EF 2041
Procedure: as §1

[12] = tested on: Staphylococcus aureus X778; assay: MIC, standard broth micro-dilution assay, SA X778
Procedure: as §1

Enterococcus faecium 180 = assay: MIC, standard broth micro-dilution assay, EF 180
Procedure: as §1

[13] = tested on: Staphylococcus aureus 447; assay: MIC, standard broth micro-dilution assay, SA 447
Procedure: as §1

[14] = tested on: Staphylococcus aureus 446; assay: MIC, standard broth micro-dilution assay, SA 446
Procedure: as §1

[15] = tested on: Enterococcus gallinarum 245; assay: MIC, standard broth micro-dilution assay, EG 245
Procedure: as §1

[16] = tested on: Staphylococcus aureus 491; assay: MIC, standard broth micro-dilution assay, SA 491
Procedure: as §1

[17] = tested on: Staphylococcus aureus X400; assay: MIC, standard broth micro-dilution assay, SA X400
Procedure: as §1

[18] = tested on: Staphylococcus aureus SA1199; assay: MIC, standard broth micro-dilution assay, SA 1199
Procedure: as §1

[19] = tested on: Enterococcus faecium 180-1; assay: MIC, standard broth micro-dilution assay, EF 180-1
Procedure: as §1

CC(C)CC(N)C(=O)NC1C(=O)NC(CC(N)=O)C(=O)NC2C(=O)NC3C(=O)NC(C(=O)NC(C(=O)O)c4cc(O)cc(O)c4-c4cc3ccc4O)C(OC3CC(C)(N)C(O)C(C)O3)c3ccc(c(Cl)c3)Oc3cc2cc(c3OC2OC(CO)C(O)C(O)C2O)Oc2ccc(cc2Cl)C1O [Example 37, N^1-D-leucine derivative of desepivancosaminyl-desleucylA82846B]
minimal inhibitory concentration (MIC), SA S13E [1]: 0.25
minimal inhibitory concentration (MIC), SH 415 [2]: 4
minimal inhibitory concentration (MIC), EF 276 [3]: 0.25
minimal inhibitory concentration (MIC), Resistant [4]: >32
minimal inhibitory concentration (MIC), SA 489 [5]: 0.25
minimal inhibitory concentration (MIC), SE 270 [6]: 0.5
minimal inhibitory concentration (MIC), EC 14 (Escherichia coli EC14): >64
minimal inhibitory concentration (MIC), Sensitive [7]: 0.87
minimal inhibitory concentration (MIC), SA 1199A [8]: 0.125
minimal inhibitory concentration (MIC), HFRD [9]: 64
minimal inhibitory concentration (MIC), SH 105 [10]: 0.25
minimal inhibitory concentration (MIC), EF 2041 [11]: 0.5
minimal inhibitory concentration (MIC), SA X778 [12]: 0.25
minimal inhibitory concentration (MIC), EF 180 (Enterococcus faecium 180): >64
minimal inhibitory concentration (MIC), SA 447 [13]: 1
minimal inhibitory concentration (MIC), SA 446 [14]: 0.5
minimal inhibitory concentration (MIC), EG 245 [15]: 0.5
minimal inhibitory concentration (MIC), SA 491 [16]: 0.5
minimal inhibitory concentration (MIC), SA X400 [17]: 0.25
minimal inhibitory concentration (MIC), SA 1199 [18]: 0.5
minimal inhibitory concentration (MIC), EF 180-1 [19]: 0.25

CC(C)CC(NC(=O)OC(C)(C)C)C(=O)NC1C(=O)NC(CC(N)=O)C(=O)NC2C(=O)NC3C(=O)NC(C(=O)NC(C(=O)O)c4cc(O)cc(O)c4-c4cc3ccc4O)C(OC3CC(C)(N)C(O)C(C)O3)c3ccc(c(Cl)c3)Oc3cc2cc(c3OC2OC(CO)C(O)C(O)C2OC2CC(C)(NCc3ccc(-c4ccccc4)cc3)C(O)C(C)O2)Oc2ccc(cc2Cl)C1O [Example 11, N^1-(N-BOC-L-leucine) derivative of N^DISACC-(p-phenylbenzyl)desleucylA82846B]
minimal inhibitory concentration (MIC), SA S13E [1]: 1
minimal inhibitory concentration (MIC), SH 415 [2]: 1
minimal inhibitory concentration (MIC), EF 276 [3]: 2
minimal inhibitory concentration (MIC), Resistant [4]: 45
minimal inhibitory concentration (MIC), SA 489 [5]: 2
minimal inhibitory concentration (MIC), SE 270 [6]: 0.5
minimal inhibitory concentration (MIC), EC 14 (Escherichia coli EC14): >64
minimal inhibitory concentration (MIC), Sensitive [7]: 1.7
minimal inhibitory concentration (MIC), SA 1199A [8]: 1
minimal inhibitory concentration (MIC), HFRD [9]: >64
minimal inhibitory concentration (MIC), SH 105 [10]: 0.5
minimal inhibitory concentration (MIC), EF 2041 [11]: 1
minimal inhibitory concentration (MIC), SA X778 [12]: 0.5
minimal inhibitory concentration (MIC), EF 180 (Enterococcus faecium 180): 8
minimal inhibitory concentration (MIC), SA 447 [13]: 1
minimal inhibitory concentration (MIC), SA 446 [14]: 1
minimal inhibitory concentration (MIC), EG 245 [15]: 1
minimal inhibitory concentration (MIC), SA 491 [16]: 2
minimal inhibitory concentration (MIC), SA X400 [17]: 1
minimal inhibitory concentration (MIC), SA 1199 [18]: 1
minimal inhibitory concentration (MIC), EF 180-1 [19]: 0.25

CC(C)CC(N)C(=O)NC1C(=O)NC(CC(N)=O)C(=O)NC2C(=O)NC3C(=O)NC(C(=O)NC(C(=O)O)c4cc(O)cc(O)c4-c4cc3ccc4O)C(OC3CC(C)(N)C(O)C(C)O3)c3ccc(c(Cl)c3)Oc3cc2cc(c3OC2OC(CO)C(O)C(O)C2OC2CC(C)(NCc3ccc(-c4ccccc4)cc3)C(O)C(C)O2)Oc2ccc(cc2Cl)C1O [Example 27, N^1-L-leucine derivative of N^DISACC-(p-phenylbenzyl)desleucylA82846B]
minimal inhibitory concentration (MIC), SA S13E [1]: 2
minimal inhibitory concentration (MIC), SH 415 [2]: 2
minimal inhibitory concentration (MIC), EF 276 [3]: 1
minimal inhibitory concentration (MIC), Resistant [4]: 16
minimal inhibitory concentration (MIC), SA 489 [5]: 4
minimal inhibitory concentration (MIC), SE 270 [6]: 0.25
minimal inhibitory concentration (MIC), EC 14 (Escherichia coli EC14): >64
minimal inhibitory concentration (MIC), Sensitive [7]: 1
minimal inhibitory concentration (MIC), SA 1199A [8]: 0.5
minimal inhibitory concentration (MIC), HFRD [9]: 64
minimal inhibitory concentration (MIC), SH 105 [10]: 0.125
minimal inhibitory concentration (MIC), EF 2041 [11]: 1
minimal inhibitory concentration (MIC), SA X778 [12]: 1
minimal inhibitory concentration (MIC), EF 180 (Enterococcus faecium 180): 4
minimal inhibitory concentration (MIC), SA 447 [13]: 1
minimal inhibitory concentration (MIC), SA 446 [14]: 2
minimal inhibitory concentration (MIC), EG 245 [15]: 0.5
minimal inhibitory concentration (MIC), SA 491 [16]: 1
minimal inhibitory concentration (MIC), SA X400 [17]: 2
minimal inhibitory concentration (MIC), SA 1199 [18]: 1
minimal inhibitory concentration (MIC), EF 180-1 [19]: 0.25

CCCCCCNC(CC(C)C)C(=O)NC1C(=O)NC(CC(N)=O)C(=O)NC2C(=O)NC3C(=O)NC(C(=O)NC(C(=O)O)c4cc(O)cc(O)c4-c4cc3ccc4O)C(OC3CC(C)(N)C(O)C(C)O3)c3ccc(c(Cl)c3)Oc3cc2cc(c3OC2OC(CO)C(O)C(O)C2OC2CC(C)(N)C(O)C(C)O2)Oc2ccc(cc2Cl)C1O [Example 39, N^1-(N-n-hexyl-D-leucine) derivative of desleucylA82846B]
minimal inhibitory concentration (MIC), SA S13E [1]: 0.125
minimal inhibitory concentration (MIC), SH 415 [2]: 2
minimal inhibitory concentration (MIC), EF 276 [3]: ≦.06
minimal inhibitory concentration (MIC), Resistant [4]: 45
minimal inhibitory concentration (MIC), SA 489 [5]: ≦.06
minimal inhibitory concentration (MIC), SE 270 [6]: 0.25
minimal inhibitory concentration (MIC), EC 14 (Escherichia coli EC14): >64
minimal inhibitory concentration (MIC), Sensitive [7]: 0.38
minimal inhibitory concentration (MIC), SA 1199A [8]: ≦.06
minimal inhibitory concentration (MIC), HFRD [9]: no
minimal inhibitory concentration (MIC), SH 105 [10]: 0.5
minimal inhibitory concentration (MIC), EF 2041 [11]: ≦.06
minimal inhibitory concentration (MIC), SA X778 [12]: ≦.06
minimal inhibitory concentration (MIC), EF 180 (Enterococcus faecium 180): 2
minimal inhibitory concentration (MIC), SA 447 [13]: 0.5
minimal inhibitory concentration (MIC), SA 446 [14]: ≦.06
minimal inhibitory concentration (MIC), EG 245 [15]: 0.5
minimal inhibitory concentration (MIC), SA 491 [16]: ≦.06
minimal inhibitory concentration (MIC), SA X400 [17]: ≦.06
minimal inhibitory concentration (MIC), SA 1199 [18]: 0.125
minimal inhibitory concentration (MIC), EF 180-1 [19]: no growth

CC1OC(OC2C(Oc3c4cc5cc3Oc3ccc(cc3Cl)[C@@H](O)[C@@H](NC(=O)c3ccc(-c6ccccc6)cc3)C(=O)N[C@@H](CC(N)=O)C(=O)N[C@H]5C(=O)N[C@H]3C(=O)NC(C(=O)N[C@H](C(=O)O)c5cc(O)cc(O)c5-c5cc3ccc5O)[C@H](OC3CC(C)(N)C(O)C(C)O3)c3ccc(c(Cl)c3)O4)OC(CO)C(O)C2O)CC(C)(N)C1O (stereo partly drawn) [Example 1, N^1-(p-phenylbenzoyl)desleucylA82846B]
minimal inhibitory concentration (MIC), SA S13E [1]: 0.25
minimal inhibitory concentration (MIC), SH 415 [2]: 4
minimal inhibitory concentration (MIC), EF 276 [3]: 0.125
minimal inhibitory concentration (MIC), Resistant [4]: >128
minimal inhibitory concentration (MIC), SA 489 [5]: 0.5
minimal inhibitory concentration (MIC), SE 270 [6]: 0.5
minimal inhibitory concentration (MIC), EC 14 (Escherichia coli EC14): >64
minimal inhibitory concentration (MIC), Sensitive [7]: 4
minimal inhibitory concentration (MIC), SA 1199A [8]: ≦.06
minimal inhibitory concentration (MIC), HFRD [9]: no growth
minimal inhibitory concentration (MIC), SH 105 [10]: 2
minimal inhibitory concentration (MIC), EF 2041 [11]: 0.125
minimal inhibitory concentration (MIC), SA X778 [12]: 0.125
minimal inhibitory concentration (MIC), EF 180 (Enterococcus faecium 180): 64
minimal inhibitory concentration (MIC), SA 447 [13]: 0.25
minimal inhibitory concentration (MIC), SA 446 [14]: 1
minimal inhibitory concentration (MIC), EG 245 [15]: 2
minimal inhibitory concentration (MIC), SA 491 [16]: 0.5
minimal inhibitory concentration (MIC), SA X400 [17]: 0.5
minimal inhibitory concentration (MIC), SA 1199 [18]: 0.125
minimal inhibitory concentration (MIC), EF 180-1 [19]: 0.125
